Assays:
[1] = system: Venezuelan equine encephalitis virus; assay: Inhibitory activity of compound against Venezuelan equine encephalomyelitis virus (VEE) was evaluated in vitro; Inactive; format: functional
Pichinde virus = assay: Inhibitory activity of compound against pichinde virus (PIC) was evaluated in vitro; Inactive; format: functional
unidentified adenovirus = assay: Inhibitory activity of compound against Adenovirus type 2 (AD2) was evaluated in vitro; Inactive; format: functional
[2] = system: Human immunodeficiency virus; assay: Inhibitory activity of compound against human immunodeficiency virus (HIV) was evaluated in vitro; Inactive; format: functional, Human immunodeficiency virus 1
[3] = system: Sandfly fever Sicilian virus; assay: (§1) Inhibitory activity of compound against […] was evaluated in vitro; Inactive; format: functional
Rift Valley fever virus = assay: as §1; format: functional
Yellow fever virus = assay: Inhibitory activity of compound against Yellow fever virus (YF) was evaluated in vitro; Inactive; format: functional
[4] = system: Japanese encephalitis virus; assay: Inhibitory activity of compound against japanese encephalitis virus (JBE) was evaluated in vitro; Inactive; format: functional
Punta Toro virus = assay: Inhibitory activity of compound against punto toro virus (PT) was evaluated in vitro; Inactive; format: functional
[5] = system: Vesicular stomatitis virus; assay: Inhibitory activity of compound against Vesicular stomatitis virus (VSV) was evaluated in vitro; Inactive; format: functional

Measured: Dose

CC(O)C(CP(=O)(O)O)OCn1ccc(=O)[nH]c1=O (stereo not given)
320 µg/mL: all assays above

CCOP(=O)(C[C@H](O)[C@H](C)OCc1ccccc1)OCC
320 µg/mL: all assays above

CCOP(=O)(O)CC(OCn1cc(C)c(=O)[nH]c1=O)C(C)O (stereo not given)
320 µg/mL: all assays above

Cc1cn(COC(CP(=O)(O)O)C(C)O)c(=O)[nH]c1=O (stereo not given)
320 µg/mL: all assays above

CCOP(=O)(O)CC(OCn1ccc(=O)[nH]c1=O)C(C)O (stereo not given)
320 µg/mL: all assays above

CC(O)C(CP(=O)(O)O)OCn1ccc(N)nc1=O (stereo not given)
320 µg/mL: all assays above

CCOP(=O)(C[C@H](O)[C@H](COCc1ccccc1)OCc1ccccc1)OCC
320 µg/mL: all assays above

Cc1cn(COC(CP(=O)(O)O)C(O)CO)c(=O)[nH]c1=O (stereo not given)
320 µg/mL: all assays above

Cc1cn(COC2CP(=O)(Oc3ccccc3)OC2C)c(=O)[nH]c1=O (stereo not given)
320 µg/mL: all assays above
